Experimental data reported in patent US7763624B2, “Substituted pyrazolo[3,4-d]pyrimidines as ACK-1 and LCK inhibitors” (Amgen Inc., priority 2005, dated 2010).
Like-named read-outs stand apart in the source and are kept apart here.

Tests used:
[1] = biological target: T1, ACK1 (Homo sapiens, UniProt Q07912); test: ACK1 Enzymatic Assay (PGT/autophosphorylation ELISA); format: biochemical
T1 construct: a fusion of an N-terminal (His)6 Tag with amino acids 117 to 489 of ACK1; (His)6 (N); made in house; host or cells: baculovirus infected Hi-5 insect cells
T1 sequence (Q07912 117-489): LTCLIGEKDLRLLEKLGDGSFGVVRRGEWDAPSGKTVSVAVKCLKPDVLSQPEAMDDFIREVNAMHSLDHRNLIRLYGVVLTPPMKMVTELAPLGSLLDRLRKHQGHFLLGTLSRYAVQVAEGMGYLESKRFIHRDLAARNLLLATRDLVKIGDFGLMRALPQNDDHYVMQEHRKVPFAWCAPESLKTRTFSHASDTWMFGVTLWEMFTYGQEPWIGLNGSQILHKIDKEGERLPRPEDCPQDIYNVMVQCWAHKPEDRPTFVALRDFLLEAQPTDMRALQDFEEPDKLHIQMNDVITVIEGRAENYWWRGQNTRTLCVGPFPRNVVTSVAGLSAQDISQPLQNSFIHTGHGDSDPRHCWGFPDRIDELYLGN
Description: IC50 values of compounds of the invention may be assessed as follows. The ACK1 kinase assay utilizes a protein expressed in baculovirus infected Hi-5 cells (a fusion of an N-terminal (His)6 Tag with amino acids 117 to 489 of ACK1) purified by affinity chromatography on a Ni-NTA column. The substrate for the reaction is ACK1 itself (autophosphorylation) and poly-Glutamic acid-Tyrosine (PGT (4:1), Sigma catalog #PO275). The PGT is coated to Nunc 96 well plates at 80 μg/mL overnight at 4° C. The morning after coating, the plates are washed twice, and […] reaction buffer (10 mM Hepes, pH 7.6; 20 mM MgCl2; 75 mM NaCl, 0.125% TWEEN20 (polyoxyethylene sorbitan monolaurate); 1 mM DTT) with 5 μM ATP are added to each well. Test compounds are added in […] DMSO, and the reaction is started by addition of […] kinase in assay buffer. The reaction proceeds for 2 h at room temperature. Next, the plates are washed four times, and the level of tyrosine phosphorylation in a given well is quantified by standard ELISA assay utilizing a phosphotyrosine antibody (PY20, Pierce).

[2] = biological target: T2, LCK (Homo sapiens, UniProt P06239); test: LCK-Homogeneous Time Resolved Fluorescent (HTRF) Kinase Assay; format: biochemical
T2 construct: 15 μL of LCK KD GST (225-509) for a final volume of 40 μL; GST
T2 sequence (P06239 225-509): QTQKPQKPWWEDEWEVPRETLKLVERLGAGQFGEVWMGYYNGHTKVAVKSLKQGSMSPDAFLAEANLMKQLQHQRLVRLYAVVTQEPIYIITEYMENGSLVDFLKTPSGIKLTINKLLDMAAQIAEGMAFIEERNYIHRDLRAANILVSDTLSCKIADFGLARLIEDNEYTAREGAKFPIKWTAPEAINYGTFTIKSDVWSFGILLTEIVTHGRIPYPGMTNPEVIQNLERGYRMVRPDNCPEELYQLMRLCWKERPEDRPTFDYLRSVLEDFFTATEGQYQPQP
Description: LCK-Homogeneous Time Resolved Fluorescent (HTRF) Kinase Assay
The LCK HTRF assay begins with LCK in the presence of ATP phosphorylating the biotinylated peptide Gastrin. The reaction incubates for 90 min. To quench the assay detection reagents are added which both stop the reaction by diluting out the enzyme and chelating the metals due to the presence of EDTA. Once the detection reagents are added the assay incubates for 30 min to allow for equilibration of the detection reagents.
Buffer conditions are as follows: 50 mM HEPES pH 7.5, 50 mM NaCl, 20 mM MgCl2, 5 mM MnCl2, 2 mM DTT, 0.05% BSA.
The assay is quenched and stopped with 160 μL of a detection reagent. Detection reagents are as follows: Buffer made of 50 mM Tris, pH 7.5, 100 mM NaCl, 3 mM EDTA, 0.05% BSA, 0.1% Tween20.
The assay plate is read in either a Discovery or a RubyStar.

[3] = system: C8 cells; test: ACK1 Cell Based Assay (survival under low serum, Cytotox One); settings: read-out: ACK1 Cell-based IC50
Description: ACK1 Cell Based Assay The ACK1 cell based assay is designed to find inhibitors of ACK1 kinase activity which would be prime candidates for the development of anticancer drugs. […] After 20 to 24 h incubation at 37° C. and 5% CO2, cell viability is determined using the Cytotox One kit (Promega) according to the manufacturer's instructions.

[4] = ACK1-dependent C8 cells, 0.125% FCS, 20 to 24 h

Compound | Ki [1] | Ki [2] | IC50 [3, 4] | IC50 [3]
Cc1cccc(C)c1Nc1nn(CCC(O)CO)c2nc(Nc3ccccc3)ncc12 (stereo not drawn) [Compound 34, 4-(3-(2,6-dimethylphenylamino)-6-(phenylamino)-1H-pyrazolo[3,4-d]pyrimidin-1-yl)butane-1,2-diol] | 10 to 100 nM | < 10 nM | 10 to 100 nM | –
N^3-(2,6-Dimethylphenyl)-N^6-phenyl-1-((tetrahydro-2H-pyran-4-yl)methyl)-1H-indazole-3,6-diamine [Compound 63] | 10 to 100 nM | < 10 nM | > 100 nM | –
Cc1cccc(C)c1Nc1nn(CCN2CCOCC2)c2nc(Nc3ccccc3)ncc12 [Compound 51, N^3-(2,6-Dimethyl-phenyl)-1-(2-morpholin-4-yl-ethyl)-N^6-phenyl-1H-pyrazolo[3,4-d]pyrimidine-3,6-diamine] | 10 to 100 nM | < 10 nM | – | > 100 nM
Cc1cccc(C)c1Nc1nn(CCN2CCOCC2)c2nc(Nc3ccc(N4CCN(C)CC4)cc3)ncc12 [Compound 53, N^3-(2,6-dimethyl-phenyl)-N^6-[4-(4-methyl-piperazin-1-yl)-phenyl]-1-(2-morpholin-4-yl-ethyl)-1H-pyrazolo[3,4-d]pyrimidine-3,6-diamine] | 10 to 100 nM | < 10 nM | > 100 nM | –
Cc1cccc(C)c1Nc1nn(CCCO)c2nc(Nc3ccccc3)ncc12 [Compound 37, 3-(3-(2,6-dimethylphenylamino)-6-(phenylamino)-1H-pyrazolo[3,4-d]pyrimidin-1-yl)propan-1-ol] | 10 to 100 nM | < 10 nM | > 100 nM | –
Cc1cccc(C)c1Nc1nn(CCCN2CCCCC2)c2nc(Nc3ccc(N4CCNCC4)cc3)ncc12 [Compound 49, N^3-(2,6-Dimethyl-phenyl)-N^6-(4-piperazin-1-yl-phenyl)-1-(3-piperidin-1-yl-propyl)-1H-pyrazolo[3,4-d]pyrimidine-3,6-diamine] | 10 to 100 nM | < 10 nM | > 100 nM | –
COC(C)(C)CCn1nc(Nc2ccccc2)c2cnc(Nc3ccccc3)nc21 [Compound 74, 1-(3-Methoxy-3-methyl-butyl)-N^3, N^6-diphenyl-1H-pyrazolo[3,4-d]pyrimidine-3,6-diamine] | > 100 nM | > 100 nM | – | > 100 nM
COC(C)(C)CCn1nc(Nc2c(Cl)cccc2Cl)c2cnc(Nc3ccc(OCCN4CCCC4)c(F)c3)nc21 [Compound 82, N^3-(2,6-Dichlorophenyl)-N^6-(3-fluoro-4-(2-(pyrrolidin-1-yl)ethoxy)phenyl)-1-(3-methoxy-3-methylbutyl)-1H-pyrazolo[3,4-d]pyrimidine-3,6-diamine] | < 10 nM | < 10 nM | – | 10 to 100 nM

Now from value to compound, other results behind:

Ki [1] | Ki [2] | Compound | IC50 [3, 4] | IC50 [3]
10 to 100 nM | < 10 nM | OCC(O)CCn1nc(Nc2c(Cl)cccc2Cl)c2cnc(Nc3ccccc3)nc21 (stereo not drawn) [Compound 88, 4-(3-(2,6-dichlorophenylamino)-6-(phenylamino)-1H-pyrazolo[3,4-d]pyrimidin-1-yl)butane-1,2-diol] | 10 to 100 nM | –
< 10 nM | < 10 nM | COC(C)(C)CCn1nc(Nc2c(C)cccc2C)c2cnc(Nc3ccc(N4CCN(C)CC4)cc3)nc21 [Compound 55, N^3-(2,6-Dimethyl-phenyl)-1-(3-methoxy-3-methyl-butyl)-N-6-[4-(methylpiperazin-1-yl)phenyl]-1H-pyrazolo[3,4-d]pyrimidine-3,6-diamine] | 10 to 100 nM | –
> 100 nM | < 10 nM | N^3-(2,6-Dimethylphenyl)-1-(3-methoxy-3-methylbutyl)-1H-indazole-3,6-diamine [Compound 58] | > 100 nM | –
> 100 nM | < 10 nM | 2-(3-(2,6-dimethylphenylamino)-6-(phenylamino)-1H-indazol-1-yl)-1-(4-methylpiperazin-1-yl)ethanone [Compound 70] | > 100 nM | –
10 to 100 nM | < 10 nM | N^3-(2,6-dimethylphenyl)-1-(2-(4-methylpiperazin-1-yl)ethyl)-N^6-phenyl-1H-indazole-3,6-diamine [Compound 72] | > 100 nM | –
